Among the data in ChEMBL document CHEMBL3507680, “University of Dundee, Gates Library screen for HepG2 cell viability” are cytotoxicity values, retold here.

The series can be described thus: Human HepG2 cell viability assay in 384 well format. The series is classed as toxicity, cell-based. Details: dose 125 nL, time 70.5 hour; concentration not given beside the values. To be noted: HepG2 cells, read-out: Inhibition.

On to `Nc1nccnc1CC1CCCN(Cc2c[nH]c3ccccc23)C1` (stereo not given), for which the cytotoxicity at 70.5 h is -9.09%.

`Cc1c(C(=O)N[C@@H]2CC[C@@H](N3CCCC3)[C@@H]2O)[nH]c2ccc(F)cc12`: the cytotoxicity at 70.5 h is 6.16%.

In the case of `c1cc(CNc2ncc(-c3cnccn3)c(C3CC3)n2)ccn1`, the cytotoxicity at 70.5 h was -2.59%.

On to `Cc1cc(-c2ccc(=O)n(C3CCN(S(C)(=O)=O)CC3)n2)c(C)o1`, for which the cytotoxicity at 70.5 h amounted to 17.2%.

As to `CC(C)OC(=O)[C@@H]1CCN(C(=O)c2ccccn2)[C@@H]1c1ccc(F)cc1`, the cytotoxicity at 70.5 h was -6.08%.

Turning to `O=C(O)[C@@H]1CCN(C(=O)c2ccccn2)[C@@H]1c1ccc(F)cc1`, the cytotoxicity at 70.5 h was -7.21%.

Turning to `O=C(O)[C@@H]1CCN(C(=O)Cc2ccccn2)[C@@H]1c1ccc(F)cc1`, the cytotoxicity at 70.5 h is -7.95%.

Consider `c1cc(CNc2ncc(-c3cnccn3)c([C@@H]3CCCO3)n2)ccn1`, for which the cytotoxicity at 70.5 h is -5.57%.

In the case of `COc1ccc(-c2nccc(C3CCCN3C)n2)cc1` (stereo not given), the cytotoxicity at 70.5 h is -2.22%.

As for `CN1CCC(c2cc(CCO)ncn2)C1` (stereo not given), the cytotoxicity at 70.5 h worked out at 1.56%.

In the case of `CN1CCCC1c1ccnc(-c2ccccc2)n1` (stereo not given), the cytotoxicity at 70.5 h is -2.81%.

As for `CC(C)c1ncc(CN2CCCC2c2[nH]ncc2C(=O)N(C)C)cn1` (stereo not given), the cytotoxicity at 70.5 h was -5.06%.

As to `O=C(CC1CCN(CCc2ccccc2)CC1)N1CCCOCC1`, the cytotoxicity at 70.5 h was -1.73%.

As to `CCN(CC)C(=O)CN1CCCC(c2nc(C)c3c(n2)N(C)CCC3)C1` (stereo not given), the cytotoxicity at 70.5 h was determined as 0.707%.

Regarding `CN1CCCC1c1ccnc(-c2ccccn2)n1` (stereo not given), the cytotoxicity at 70.5 h was -1.8%.

As for `CN(C)c1nc(O)cc(C2CCN(C(=O)Cc3ccccn3)C2)n1` (stereo not given), the cytotoxicity at 70.5 h was found to be 1.91%.

With `COc1ccccc1C1(O)CCCN(C(=O)c2cnc(SC)nc2)C1` (stereo not given), the cytotoxicity at 70.5 h was -3.73%.

For the compound `CC(C)c1nc(O)c2nnn(C[C@H]3CCCN(Cc4cccs4)C3)c2n1`, the cytotoxicity at 70.5 h stood at 32.6%.

Take `CC(C)c1nc(O)c2nnn(C[C@@H]3CCCN(Cc4ccsc4)C3)c2n1`: the cytotoxicity at 70.5 h was -2.22%.

Take `CN(CCc1cn[nH]c1)C(=O)CCc1ccc(Cl)cc1`: the cytotoxicity at 70.5 h is -0.186%.

For `COc1ccc(N2CCN(C(=O)OC(C)(C)C)C(C(=O)O)C2)cc1` (stereo not given), the cytotoxicity at 70.5 h was -0.702%.

With `Cc1nc(C2CCCN(C(C)C)C2)sc1Br` (stereo not given), the cytotoxicity at 70.5 h was -4.14%.

On to `NC1(CN2CCOCC2)CCCCC1`, for which the cytotoxicity at 70.5 h is -2.02%.

As to `CC(C)(C)OC(=O)N1CCN(c2ccc(F)cc2)CC1C(=O)O` (stereo not given), the cytotoxicity at 70.5 h was -1.03%.

With `O=C(N[C@@H]1CC[C@@H](N2CCCC2)[C@@H]1O)c1cc2cccc(F)c2[nH]1`, the cytotoxicity at 70.5 h is -9.84%.

In the case of `Cc1n[nH]c(C)c1CCC(=O)N[C@@H]1CCC[C@@H](Oc2ccccc2)[C@@H]1O`, the cytotoxicity at 70.5 h stood at 21.6%.

As to `Cc1noc(C)c1CCC(=O)N[C@@H]1CC[C@@H](Oc2cccnc2)[C@@H]1O`, the cytotoxicity at 70.5 h was -3.66%.

Turning to `O=C(c1cc(C2CCCCC2)no1)N1C[C@H]2C[C@H](O)C[C@H]2C1`, the cytotoxicity at 70.5 h was -4.06%.

`Cc1noc(C2(C)CCCN(C(=O)C(C)C)C2)n1` (stereo not given): the cytotoxicity at 70.5 h is -0.687%.

For the compound `Nc1ccc(CC2CCCN(Cc3c[nH]cn3)C2)nn1` (stereo not given), the cytotoxicity at 70.5 h was -2.3%.

For the compound `CN(C)C(=O)C1(C)CN(Cc2cn(C)c3ccc(F)cc23)CCO1` (stereo not given), the cytotoxicity at 70.5 h came out at 9.86%.

Regarding `COCCNC(=O)c1cc(C)nc(C2CCN(C)CC2)n1`, the cytotoxicity at 70.5 h is -3.41%.

Consider `COc1ncc(CN2CCCC2c2[nH]ncc2C(=O)N(C)C)cn1` (stereo not given), for which the cytotoxicity at 70.5 h was 23.2%.

Consider `O=C(NCC1(O)COCCN(Cc2cccc(O)c2)C1)c1cnccn1` (stereo not given), for which the cytotoxicity at 70.5 h is -3.85%.

As to `CNC(=O)CN1CCOC(c2cccc(N)n2)C1` (stereo not given), the cytotoxicity at 70.5 h was -1.41%.

Regarding `CC(=O)NCc1nccnc1C1CCN(C(=O)c2cc[nH]n2)CC1`, the cytotoxicity at 70.5 h was -6.68%.

Consider `Cc1nccc(N2CCCC(C)(c3[nH]ncc3C(N)=O)C2)n1` (stereo not given), for which the cytotoxicity at 70.5 h is -4.04%.

As to `CN(C)c1cccc(C2CCN(c3ncccn3)CC2)n1`, the cytotoxicity at 70.5 h is -3.49%.

Regarding `NC(=O)c1cnc(-c2ccccc2)nc1CCNC(=O)CN1CCCC1`, the cytotoxicity at 70.5 h is 9.13%.

`COCCN1CCCC1(C)c1nc(C)cc(N)n1` (stereo not given): the cytotoxicity at 70.5 h came to 0.23%.

Consider `O=C(C1CC1)N1CCC(O)(CN2CCN(c3ccccc3)CC2)C1` (stereo not given), for which the cytotoxicity at 70.5 h is -4.63%.

With `Cc1cc(-c2ccccc2C(=O)O)nc(C2CCCN2S(C)(=O)=O)n1` (stereo not given), the cytotoxicity at 70.5 h is -1.81%.

Consider `Cc1nn(C)cc1CN(Cc1ccccn1)Cc1ccccc1Cl`, for which the cytotoxicity at 70.5 h amounted to 4.5%.

In the case of `Cc1cc(C)nc(C2CCCN2C(=O)c2coc(C)n2)n1` (stereo not given), the cytotoxicity at 70.5 h was found to be 23%.

For the compound `Cc1cc(CN2CCc3nc(-c4ccncc4)nc(O)c3CC2)c(C)s1`, the cytotoxicity at 70.5 h was -7.8%.

On to `CC(C)C(C(N)=O)c1cccc(Cl)c1` (stereo not given), for which the cytotoxicity at 70.5 h was -3.86%.

Consider `Cn1cc(S(=O)(=O)Nc2ccc3[nH]c(C4CCC4)nc3c2)cn1`, for which the cytotoxicity at 70.5 h came out at 0.665%.

Consider `CNC(=O)C(c1cccc(Cl)c1)C(C)C` (stereo not given), for which the cytotoxicity at 70.5 h was 17.1%.

For `Cc1ccccc1-n1ccnc1S(=O)(=O)Cc1nsc(N(C)C)n1`, the cytotoxicity at 70.5 h was -11%.

In the case of `Cc1ccnc2c1NC(=O)CN2C(=O)CCC(F)(F)F`, the cytotoxicity at 70.5 h was -6.32%.

In the case of `CNC(=O)Cc1ccc(NC(=O)NCC(C)c2ncc(C)s2)cc1` (stereo not given), the cytotoxicity at 70.5 h is -12.5%.

Turning to `CCOCCOC(C)C(=O)Nc1nccn1Cc1ccccc1` (stereo not given), the cytotoxicity at 70.5 h was -15%.

As for `Cc1ccc(C)c(CC(=O)NC2CCC(N3C(=O)CCC3=O)CC2)c1` (stereo not given), the cytotoxicity at 70.5 h was -1.42%.

Turning to `O=C(NCCn1ccnc1)C1COCC(=O)N1Cc1ccccc1` (stereo not given), the cytotoxicity at 70.5 h amounted to 9.74%.

On to `CC(C#N)NS(=O)(=O)c1cccc(C(C)C)c1` (stereo not given), for which the cytotoxicity at 70.5 h is -15.4%.

Consider `CCC1CCCCN1C(=O)Cn1cnc(C#N)n1` (stereo not given), for which the cytotoxicity at 70.5 h was -4.5%.

As to `CC(C)OCCS(=O)(=O)N1CCN(Cc2cccn2C)CC1`, the cytotoxicity at 70.5 h was -8.85%.

As to `CN(C)S(=O)(=O)N(C)C(c1cccnc1)c1ccc(F)c(F)c1` (stereo not given), the cytotoxicity at 70.5 h was 14.4%.

Consider `COCC(=O)N1CCN(C(C)C(=O)NC(C)C)CC1` (stereo not given), for which the cytotoxicity at 70.5 h was 5.85%.

`CC(C)(C)c1cc(NC(=O)CN(Cc2ccco2)Cc2cccs2)on1`: the cytotoxicity at 70.5 h was 4.01%.

As for `CC(C)(C)c1cc(NC(=O)CN(Cc2cccs2)Cc2cccs2)on1`, the cytotoxicity at 70.5 h is -8.34%.

In the case of `CCOC(=O)N1CCC(C(=O)Nc2nnc(C(F)(F)F)[nH]2)CC1`, the cytotoxicity at 70.5 h came to 5.31%.

Regarding `CC(=O)N1CCC(C(=O)Nc2nnc(C(F)(F)F)[nH]2)CC1`, the cytotoxicity at 70.5 h was -8.53%.

Regarding `CN(CCCOc1ccccc1)S(=O)(=O)N1CCOCC1`, the cytotoxicity at 70.5 h is -12.8%.

Consider `CN(CCOc1ccc(F)cc1)S(=O)(=O)N1CCOCC1`, for which the cytotoxicity at 70.5 h was -9.68%.

For `CC(=O)NCCNC(=O)c1sccc1Br`, the cytotoxicity at 70.5 h was -16.2%.

In the case of `CCOc1nnc(CN2CCC(c3cc4ccccc4[nH]3)CC2)s1`, the cytotoxicity at 70.5 h was -5.08%.

As to `CC(c1ccco1)N(C(=O)CNc1ccc(C#N)cc1)C1CC1` (stereo not given), the cytotoxicity at 70.5 h came to 4.38%.

In the case of `CC(C1CC1)N(C(=O)CNc1ccc(C#N)cc1)C1CC1` (stereo not given), the cytotoxicity at 70.5 h is -6.5%.

Turning to `c1nc2c(c(N3CCOC(Cn4cncn4)C3)n1)CCC2` (stereo not given), the cytotoxicity at 70.5 h is -7.61%.

For `c1nc2c(c(N3CCCC(Cn4cncn4)C3)n1)CCC2` (stereo not given), the cytotoxicity at 70.5 h is -7.36%.

Consider `O=C(NCCNC(=O)C1CC1)c1sccc1Br`, for which the cytotoxicity at 70.5 h was -6.03%.

As for `CC(C)COCCC(=O)Nc1cc(-n2nnnc2C2CC2)ccc1F`, the cytotoxicity at 70.5 h was -8.14%.

On to `CCOc1ccccc1CCNC(=O)NCC(O)c1ccsc1` (stereo not given), for which the cytotoxicity at 70.5 h was -0.583%.

Consider `CC(C)C(C#N)N1CCN(C(=O)c2cc(-c3ccccn3)no2)CC1` (stereo not given), for which the cytotoxicity at 70.5 h stood at 3.13%.

Regarding `CCCS(=O)(=O)NC(=O)c1ccc(-n2nc(C)cc2C)cc1`, the cytotoxicity at 70.5 h was -6.42%.

For the compound `CN1CCOC(C(=O)Nc2nc(-c3ccccc3F)n[nH]2)C1` (stereo not given), the cytotoxicity at 70.5 h was -6.97%.

For `c1cnn(CC2CN(c3ncnc4c3CCC4)CCO2)c1` (stereo not given), the cytotoxicity at 70.5 h is -9.89%.

Consider `CC(NC(=O)c1ccoc1)C(=O)N(C)Cc1ccc(O)cc1` (stereo not given), for which the cytotoxicity at 70.5 h was determined as 3.58%.

On to `Cc1cnn(C2CN(C(C)c3nc(-c4ccccc4)no3)C2)c1` (stereo not given), for which the cytotoxicity at 70.5 h is -8.84%.

For the compound `COc1ccnc(N(C)Cc2csc(C)n2)n1`, the cytotoxicity at 70.5 h is -6.22%.

`CCC1CCCCCN1C(=O)c1coc(S(=O)(=O)N(C)C)c1` (stereo not given): the cytotoxicity at 70.5 h was -12.3%.

For `N#Cc1c(CN2CCCCC2Cn2cncn2)cn2ccccc12` (stereo not given), the cytotoxicity at 70.5 h was 5.14%.

As for `COc1ccc(COCC(O)CSc2ccc(NC(C)=O)cc2)cc1` (stereo not given), the cytotoxicity at 70.5 h is -10.5%.

Take `CC(=O)Nc1ccc(SCC(O)COCc2ccco2)cc1` (stereo not given): the cytotoxicity at 70.5 h was -12%.

Consider `O=C(NCc1ccnc(OCC(F)(F)F)c1)NCC1CCCO1` (stereo not given), for which the cytotoxicity at 70.5 h is 0.67%.

Regarding `CC(CN1CCOCC1)NC(=O)Nc1cccnc1-n1cccn1` (stereo not given), the cytotoxicity at 70.5 h was -14%.

As for `O=C(NCCN1CCCCCC1=O)Nc1cccnc1-n1cccn1`, the cytotoxicity at 70.5 h was 23.5%.

As for `CC(=O)NCCNC(=O)c1nc(C2CC2)n(-c2ccccc2Cl)n1`, the cytotoxicity at 70.5 h was -13.6%.

As to `CNC(=O)Cn1ccc2ccc(NC(=O)C(C)CSC)cc21` (stereo not given), the cytotoxicity at 70.5 h was -5.03%.

For `Cn1cc(CCC(=O)NCc2ccccc2OC(C)(C)C)cn1`, the cytotoxicity at 70.5 h came out at 2.39%.

In the case of `Cc1nc(CCCC(=O)Nc2cccc(N3CCNC3=O)c2)cs1`, the cytotoxicity at 70.5 h came to 0.608%.

`O=C(NCc1ccnc(OCC(F)(F)F)c1)NCC1COCCO1` (stereo not given): the cytotoxicity at 70.5 h was -6.7%.

Take `COc1ccc(-n2cc(CNC(=O)c3ccc[nH]3)nn2)cc1`: the cytotoxicity at 70.5 h is -2.18%.

`O=S(=O)(c1cncc(F)c1)N1CCSC2(CCCCC2)C1`: the cytotoxicity at 70.5 h was -10.2%.

In the case of `COCCNC(=O)c1sc2ccccc2c1C1CCC(CN)CC1` (stereo not given), the cytotoxicity at 70.5 h was -1.66%.

As to `Cc1nc(NCc2cccc(F)c2)cc(C2CCNCC2)n1`, the cytotoxicity at 70.5 h was determined as 0.802%.

Turning to `CC(C)NC(=O)c1sc2ccccc2c1[C@H]1CC[C@H](CN)CC1`, the cytotoxicity at 70.5 h is 38.7%.

With `c1nc(CN2CCCC(Cc3ccc(NC4CCCC4)nn3)C2)c[nH]1` (stereo not given), the cytotoxicity at 70.5 h is 0.181%.

As to `Cc1ccccc1OC1CCN(CC(=O)Nc2cnn(C)c2C)CC1`, the cytotoxicity at 70.5 h is -2.68%.
